Here are results for 35 molecules from patent US20230233541A1, “SUBSTITUTED BENZAMIDES AS MODULATORS OF TREX1” (Constellation Pharmaceuticals, Inc., priority 2020, published 2023).

SMILES strings stand for the structures.

The target of experiment [1] is T1, human TREX2 (residues M44-A279) (Homo sapiens, UniProt Q9BQ50).
T1 construct: human TREX2 (residues M44-A279, expressed in E. coli); His-Tev (His tag with TEV protease site) (N); made in house; host or cells: E. coli
T1 sequence (Q9BQ50 44-279 isoform Q9BQ50-1): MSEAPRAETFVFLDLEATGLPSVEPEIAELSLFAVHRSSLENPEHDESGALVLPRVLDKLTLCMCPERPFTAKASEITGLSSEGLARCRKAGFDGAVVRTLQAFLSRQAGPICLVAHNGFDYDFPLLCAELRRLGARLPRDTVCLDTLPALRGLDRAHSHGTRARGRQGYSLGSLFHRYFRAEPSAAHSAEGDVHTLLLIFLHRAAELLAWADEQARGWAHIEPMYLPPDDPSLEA
The experiment in a line: TREX2 Biochemical Assay (fluorescence assay, degradation of dsDNA substrate). The settings on record: 2.5 nM TREX2, 60 nM dsDNA substrate, 25 minutes at room temperature; read-out: hTREX2 EC50. The method, then: Degradation of the dsDNA liberates free fluorophore to produce a fluorescent signal. Specifically, 7.5 μL of N-terminally His-Tev tagged human TREX2 (residues M44-A279, expressed in E. coli and purified in house) in reaction buffer (50 mM Tris (pH 7.4), 150 mM NaCl, 2 mM DTT, 0.1 mg/mL BSA, 0.01% (v/v) Tween-20 and 100 mM MgCl2) was added to a 384-well Black ProxiPlate Plus (Perkin Elmer) which already contained compound (150 nL) at varying concentrations as a 10-point dose-response in DMSO. To this was added 7.5 μL of dsDNA substrate (Strand A: 5′ TEX615/GCT AGG CAG 3′; Strand B: 5′ CTG CCT AGC/IAbRQSp (IDT)) in reaction buffer. Final concentrations were 2.5 nM TREX2, 60 nM dsDNA substrate in reaction buffer with 1.0% DMSO (v/v). After 25 minutes at room temperature, reactions were quenched by the addition of 5 μL of stop buffer (same as reaction buffer plus 200 mM EDTA). Final concentrations in the quenched reaction mixture were […] TREX2, 45 nM DNA and 50 mM EDTA in a volume of 20 μL. After a 5-minute incubation at room temperature, plates were read in a laser sourced Envision (Perkin-Elmer), measuring fluorescence at 615 nm following excitation w/570 nm light. IC50 values were calculated by comparing the measured fluorescence at 615 nm ratio relative to control wells pre-quenched w/stop buffer (100% inhibition) and no inhibitor (0% inhibition) controls as using non-linear least square four parameter fits and either Genedata or GraphPad Prism (GraphPad Software, Inc.).

A further experiment concerns the target T2, full length human TREX1 (Homo sapiens, UniProt Q9NSU2).
T2 construct: N-terminally His-Tev tagged full length human TREX1; His-Tev (His tag with TEV protease site) (N); made in house; host or cells: E. coli
T2 sequence (Q9NSU2 1-314): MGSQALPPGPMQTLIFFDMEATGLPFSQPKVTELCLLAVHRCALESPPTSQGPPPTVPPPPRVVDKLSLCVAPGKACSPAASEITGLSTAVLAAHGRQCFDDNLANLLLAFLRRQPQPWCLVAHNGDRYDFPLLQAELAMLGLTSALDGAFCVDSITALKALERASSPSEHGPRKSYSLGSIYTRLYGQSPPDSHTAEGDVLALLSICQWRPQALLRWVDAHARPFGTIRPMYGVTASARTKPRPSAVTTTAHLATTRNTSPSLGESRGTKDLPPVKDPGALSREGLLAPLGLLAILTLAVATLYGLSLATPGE
The experiment in a line: TREX1 Biochemical Assay (fluorescence assay, degradation of dsDNA substrate). The settings on record: 150 pM TREX1, 60 nM dsDNA substrate, 25 minutes at room temperature; read-out: hTREX1 EC50. The method, then: Degradation of the dsDNA liberates free fluorophore to produce a fluorescent signal. Specifically, 7.5 μL of N-terminally His-Tev tagged full length human TREX1 (expressed in E. coli and purified in house) in reaction buffer (50 mM Tris (pH 7.4), 150 mM NaCl, 2 mM DTT, 0.1 mg/mL BSA, 0.01% (v/v) Tween-20 and 100 mM MgCl2) was added to a 384-well Black ProxiPlate Plus (Perkin Elmer) which already contained compound (150 nL) at varying concentrations as a 10-point dose-response in DMSO. To this was added 7.5 μL of dsDNA substrate (Strand A: 5′ TEX615/GCT AGG CAG 3′; Strand B: 5′ CTG CCT AGC/IAbRQSp (Integrated DNA Technologies)) in reaction buffer. Final concentrations were 150 pM TREX1, 60 nM dsDNA substrate in reaction buffer with 1.0% DMSO (v/v). After 25 minutes at room temperature, reactions were quenched by the addition of 5 μL of stop buffer (same as reaction buffer plus 200 mM EDTA). Final concentrations in the quenched reaction were 112.5 pM TREX1, 45 nM DNA and 50 mM EDTA in a volume of 20 μL. After a 5-minute incubation at room temperature, plates were read in a laser sourced Envision (Perkin-Elmer), measuring fluorescence at 615 nm following excitation w/570 nm light. IC50 values were calculated by comparing the measured fluorescence at 615 nm ratio relative to control wells pre-quenched w/stop buffer (100% inhibition) and no inhibitor (0% inhibition) controls as using non-linear least square four parameter fits and either Genedata or GraphPad Prism (GraphPad Software, Inc.).

The term EC50 denotes the concentration needed to bring the measured effect to its halfway point. For the molecule `CCC(=O)N(Cc1cccnc1)Cc1ccc(Cl)cc1Cl` [Compound 88], the EC50 in experiment [1] is greater than 100 µM; on full length human TREX1 it was greater than 10 µM.
For `COc1nccc(CN(Cc2ccc(C(=O)O)nc2)C(=O)c2cc(F)cc(F)c2)c1Cl` [Compound 188] the same measures were 1 to 10 µM and less than 0.1 µM.
For `O=C(c1cc(F)cc(F)c1)N(Cc1ccc(-c2ccn[nH]2)nc1)Cc1ccccc1Cl` [Compound 170] the same measures were 10 to 100 µM and less than 0.1 µM.
For `CN(C)c1cc(C(=O)O)ncc1CN(Cc1cccc(Cl)c1Cl)C(=O)c1cc(F)cc(F)c1` [Compound 209], the EC50 in experiment [1] was 10 to 100 µM; at full length human TREX1 it was less than 0.1 µM.
For `CC[C@@H](c1cccc(OC2COC2)c1Cl)N(Cc1ccc(C(=O)O)nc1)C(=O)c1cc(F)cc(F)c1` [Compound 232], the EC50 in experiment [1] was 10 to 100 µM; at full length human TREX1 it was less than 0.1 µM.
The matching figures for `O=C(O)c1ncc(CN(Cc2cccc(Cl)c2Cl)C(=O)c2cc(F)cc(F)c2)cc1O` [Compound 257]: 10 to 100 µM and less than 0.1 µM.
For `Cn1cc(CN(Cc2ccc(Cl)cc2Cl)C(=O)c2cccc(F)c2)cn1` [Compound 112] the same measures were greater than 100 µM and greater than 10 µM.
For `O=C(c1cc(F)cc(F)c1)N(Cc1cccnc1)Cc1ccc(Cl)cc1Cl` [Compound 121] the same measures were 10 to 100 µM and 0.1 to 1 µM.
Take `CC(C)Oc1ccc(C(=O)N(Cc2cccnc2)Cc2ccc(Cl)cc2Cl)cc1` [Compound 90]: the figures for the concentration giving a half-maximal response (EC50) (in experiment [1]; at full length human TREX1) were greater than 100 µM and greater than 10 µM, respectively.
Turning to `CC[C@H](c1ccc(OC)c(OC)c1Cl)N(Cc1ccc(C(=O)O)nc1)C(=O)c1cc(F)cc(F)c1` [Compound 226], the EC50 in experiment [1] was 1 to 10 µM; at full length human TREX1, less than 0.1 µM.
For `O=C(c1cc(F)cc(F)c1)N(Cc1ccc(-c2nnn[nH]2)nc1)Cc1ccccc1Cl` [Compound 169] the same measures were 10 to 100 µM and 0.1 to 1 µM.
The matching figures for `CC[C@@H](c1cccc(Cl)c1Cl)N(Cc1cnc(C(=O)O)c(N)c1)C(=O)c1cc(F)cc(F)c1` [Compound 236]: less than 1 µM and less than 0.1 µM.
Take `COc1nc(C(=O)O)ccc1CN(Cc1cccc(Cl)c1Cl)C(=O)c1cc(F)cc(F)c1` [Compound 210]: the values for the EC50 (in experiment [1]; on full length human TREX1) were 10 to 100 µM and 1 to 10 µM, respectively.
For `CC(C)[C@@H](c1ccc(Cl)cc1Cl)N(Cc1cccnc1)C(=O)c1cccc(F)c1` (single isomer, unassigned) [Compound 160] the same measures were 10 to 100 µM and 1 to 10 µM.
For `O=C(O)CC[C@@H](c1ccccc1Cl)N(Cc1cccnc1)C(=O)c1cc(F)cc(F)c1` [Compound 244], the values for the EC50 (in experiment [1]; on full length human TREX1) were 10 to 100 µM and less than 0.1 µM, respectively.
The matching figures for `NCCC[C@@H](c1cccc(Cl)c1Cl)N(Cc1cccnc1)C(=O)c1cc(F)cc(F)c1` [Compound 248]: 10 to 100 µM and less than 0.1 µM.
For `COc1cc(C(=O)N(Cc2cccnc2)Cc2cc(Cl)cc(Cl)c2)cc(Br)c1OC` [Compound 47] the same measures were greater than 100 µM and greater than 10 µM.
For `O=C(C1CC1)N(Cc1cccnc1)Cc1ccc(Cl)cc1Cl` [Compound 81] the same measures were greater than 100 µM and greater than 10 µM.
Take `COc1cc(C(=O)N(Cc2cccnc2)Cc2ccc(Cl)cc2Cl)cc(Br)c1OC` [Compound 32]: the results for the EC50 (in experiment [1]; at full length human TREX1) were greater than 100 µM and greater than 10 µM, respectively.
The matching figures for `O=C(c1ccccc1Oc1ccccc1)N(Cc1cccnc1)Cc1cc(Cl)cc(Cl)c1` [Compound 55]: greater than 100 µM and greater than 10 µM.
On to `CC(C)(C)c1ccc(C(=O)N(Cc2cccnc2)Cc2ccc(Cl)cc2Cl)cc1` [Compound 82], for which the EC50 in experiment [1] was greater than 100 µM; at full length human TREX1 it was greater than 10 µM.
The matching figures for `COc1cc(C(=O)N(Cc2cccnc2)Cc2cc(Cl)cc(Cl)c2)cc(Br)c1O` [Compound 62]: greater than 100 µM and greater than 10 µM.
For `O=C(c1cc(Br)c(O)c(Br)c1)N(Cc1cccnc1)Cc1cc(Cl)cc(Cl)c1` [Compound 53] the same measures were 10 to 100 µM and greater than 10 µM.
For `CS(=O)(=O)NC(=O)c1ccc(CN(Cc2cccc(Cl)c2Cl)C(=O)c2cccc(F)c2)cn1` [Compound 259] the same measures were greater than 100 µM and 1 to 10 µM.
`O=C(O)CC[C@H](c1ccccc1Cl)N(Cc1cccnc1)C(=O)c1cc(F)cc(F)c1` [Compound 245]: the half-maximal effective concentration (EC50) in experiment [1] lay within 10 to 100 µM; at full length human TREX1, 1 to 10 µM.
For `O=C(c1ccc(Cl)cc1O)N(Cc1cccnc1)Cc1cc(Cl)cc(Cl)c1` [Compound 45] the same measures were greater than 100 µM and greater than 10 µM.
On to `O=C(c1ccc(F)cc1)N(Cc1cccnc1)Cc1ccc(Cl)cc1Cl` [Compound 98], for which the figures for the EC50 (in experiment [1]; at full length human TREX1) were greater than 100 µM and greater than 10 µM, respectively.
Consider `O=C(c1ccccc1N1CCCCC1)N(Cc1cccnc1)Cc1cc(Cl)cc(Cl)c1` [Compound 46], for which the EC50 in experiment [1] was greater than 100 µM; at full length human TREX1, greater than 10 µM.
Turning to `O=C(c1cncnc1)N(Cc1cccnc1)Cc1ccc(Cl)cc1Cl` [Compound 100], the values for the EC50 (in experiment [1]; at full length human TREX1) were greater than 100 µM and greater than 10 µM, respectively.
`COc1cc(Br)cc(C(=O)N(Cc2cccnc2)Cc2ccc(Cl)cc2Cl)c1` [Compound 87]: the EC50 in experiment [1] is greater than 100 µM; at full length human TREX1, greater than 10 µM.
For `O=C(c1ccc(Oc2ccc(Br)cc2)cc1)N(Cc1cccnc1)Cc1cc(Cl)cc(Cl)c1` [Compound 77] the same measures were greater than 100 µM and greater than 10 µM.
Take `O=C(O)c1ccc(CN(Cc2ccccc2C(F)(F)F)C(=O)c2cc(F)cc(F)c2)cn1` [Compound 172]: the EC50 in experiment [1] is 1 to 10 µM; on full length human TREX1 it was less than 0.1 µM.
For `C[C@@H](c1ccc(Cl)cc1Cl)N(Cc1cccnc1)C(=O)c1cccc(F)c1` [Compound 156] the same measures were greater than 100 µM and greater than 10 µM.
The matching figures for `O=C(c1ccc(O)c(C(F)(F)F)c1)N(Cc1cccnc1)Cc1cc(Cl)cc(Cl)c1` [Compound 72]: greater than 100 µM and greater than 10 µM.
Take `O=C(c1cccc(F)c1)N(Cc1ccc(Cl)cc1)Cc1cccnc1` [Compound 138, N-[(4-chlorophenyl)methyl]-3-fluoro-N-[(pyridin-3-yl)methyl]benzamide]: the values for the EC50 (in experiment [1]; at full length human TREX1) were greater than 100 µM and greater than 10 µM, respectively.
